Format in all cases: cell-based
Assay [1] concerns the target human α1G T-type channels (Homo sapiens, UniProt O43497). As to the kind of experiment: T-type calcium channel block, whole cell patch clamp, α1G. As to conditions: HEK cells stably expressing human α1G; mainly non-inactivated protocol; values above 10,000 nM represented as 10000. In a few lines:
(§1)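 Read-out: current block in whole-cell patch clamp of HEK 293 cells stably expressing human α1G or α1H subunits. Compounds were perfused locally in external solution (0.1-0.01% DMSO) under resting and inactivating voltage protocols.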
In general terms: Patch clamp records ionic current or voltage across a cell membrane.

Assay [2] deals with human α1H T-type channels (Homo sapiens, UniProt O95180). As to the kind of experiment: T-type calcium channel block, whole cell patch clamp, α1H. Particulars: HEK cells stably expressing human α1H; mainly non-inactivated protocol; values above 10,000 nM represented as 10000. In outline:
as §1

The target of assay [3] is N-type calcium channel subunits (α1B, α2δ, and β3a) (Homo sapiens, UniProt Q00975). As to the kind of experiment: Block of Cav2.2 channel, whole cell voltage clamp, manual and PatchXpress. Particulars: Table 5; table follows Assay Example 3 (whole cell voltage clamp / PatchXpress); assay not given. In a few lines: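 Percent block taken as current amplitude ratio with versus without compound, applied in rising doses; IC50 fitted where one cell received multiple doses. Protocol: 50 ms pulses to +20 mV at 0.067 Hz from […] or −90 mV holding; P/n leak subtraction, no junction-potential correction; manual and PatchXpress recordings.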
Chain of N-type calcium channel subunits (α1B, α2δ, and β3a) (Q00975 whole entry): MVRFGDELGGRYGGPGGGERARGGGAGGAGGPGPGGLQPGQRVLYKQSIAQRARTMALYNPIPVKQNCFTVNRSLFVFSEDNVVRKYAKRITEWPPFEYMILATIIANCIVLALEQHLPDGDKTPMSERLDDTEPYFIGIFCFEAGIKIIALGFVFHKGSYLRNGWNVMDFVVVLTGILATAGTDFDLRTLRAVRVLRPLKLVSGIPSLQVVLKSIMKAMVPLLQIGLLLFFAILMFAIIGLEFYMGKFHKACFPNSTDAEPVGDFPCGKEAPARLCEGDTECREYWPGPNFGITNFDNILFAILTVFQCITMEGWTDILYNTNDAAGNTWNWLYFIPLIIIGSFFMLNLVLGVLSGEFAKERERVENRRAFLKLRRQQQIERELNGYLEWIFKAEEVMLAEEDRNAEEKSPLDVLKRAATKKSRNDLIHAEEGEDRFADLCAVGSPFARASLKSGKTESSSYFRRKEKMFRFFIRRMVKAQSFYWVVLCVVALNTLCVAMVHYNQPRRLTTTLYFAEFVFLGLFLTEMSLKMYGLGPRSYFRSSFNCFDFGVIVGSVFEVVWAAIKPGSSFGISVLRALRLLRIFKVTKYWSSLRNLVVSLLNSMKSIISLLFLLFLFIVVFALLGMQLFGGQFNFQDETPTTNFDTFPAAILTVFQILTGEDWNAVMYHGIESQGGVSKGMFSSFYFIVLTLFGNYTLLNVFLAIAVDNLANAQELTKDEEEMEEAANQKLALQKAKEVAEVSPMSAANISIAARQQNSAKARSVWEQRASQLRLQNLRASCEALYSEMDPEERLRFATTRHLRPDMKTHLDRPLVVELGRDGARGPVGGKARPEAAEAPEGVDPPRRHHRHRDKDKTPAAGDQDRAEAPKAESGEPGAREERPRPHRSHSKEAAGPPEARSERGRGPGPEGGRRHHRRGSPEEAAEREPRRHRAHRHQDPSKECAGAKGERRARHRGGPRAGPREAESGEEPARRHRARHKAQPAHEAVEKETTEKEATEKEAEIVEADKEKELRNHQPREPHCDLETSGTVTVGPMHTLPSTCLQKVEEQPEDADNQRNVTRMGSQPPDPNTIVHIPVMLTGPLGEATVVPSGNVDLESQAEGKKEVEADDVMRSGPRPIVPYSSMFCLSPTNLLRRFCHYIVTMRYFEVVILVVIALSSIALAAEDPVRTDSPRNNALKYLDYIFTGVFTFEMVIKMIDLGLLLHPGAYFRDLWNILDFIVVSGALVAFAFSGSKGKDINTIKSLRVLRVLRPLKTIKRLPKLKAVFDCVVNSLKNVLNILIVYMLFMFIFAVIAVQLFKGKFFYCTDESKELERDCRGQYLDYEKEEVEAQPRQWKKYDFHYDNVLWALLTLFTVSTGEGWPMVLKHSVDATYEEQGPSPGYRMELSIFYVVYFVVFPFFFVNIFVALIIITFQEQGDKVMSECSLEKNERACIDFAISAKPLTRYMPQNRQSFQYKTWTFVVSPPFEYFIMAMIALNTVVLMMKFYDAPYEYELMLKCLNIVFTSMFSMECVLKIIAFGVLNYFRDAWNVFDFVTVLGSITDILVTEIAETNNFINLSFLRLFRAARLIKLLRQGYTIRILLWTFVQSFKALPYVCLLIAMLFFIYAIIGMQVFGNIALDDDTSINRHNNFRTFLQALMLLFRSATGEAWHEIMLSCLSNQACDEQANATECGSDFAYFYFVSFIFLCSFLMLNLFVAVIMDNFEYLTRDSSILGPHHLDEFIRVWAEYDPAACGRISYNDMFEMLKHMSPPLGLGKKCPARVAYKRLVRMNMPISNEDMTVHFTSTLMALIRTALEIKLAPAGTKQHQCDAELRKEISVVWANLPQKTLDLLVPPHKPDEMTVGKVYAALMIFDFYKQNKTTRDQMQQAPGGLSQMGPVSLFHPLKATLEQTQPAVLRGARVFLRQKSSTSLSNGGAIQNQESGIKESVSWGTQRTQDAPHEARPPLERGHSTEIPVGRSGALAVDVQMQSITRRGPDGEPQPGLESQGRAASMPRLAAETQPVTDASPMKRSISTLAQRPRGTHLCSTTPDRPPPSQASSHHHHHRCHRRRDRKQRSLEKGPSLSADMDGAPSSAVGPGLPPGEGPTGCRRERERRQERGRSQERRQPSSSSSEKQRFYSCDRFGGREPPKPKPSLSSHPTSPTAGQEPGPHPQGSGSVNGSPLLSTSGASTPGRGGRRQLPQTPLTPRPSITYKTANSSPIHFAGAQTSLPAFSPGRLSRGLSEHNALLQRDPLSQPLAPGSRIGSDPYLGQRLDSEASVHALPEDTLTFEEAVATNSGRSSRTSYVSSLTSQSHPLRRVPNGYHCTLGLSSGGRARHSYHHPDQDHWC
Chain of N-type calcium channel subunits (α1B, α2δ, and β3a) (P54289 25-1103 partner): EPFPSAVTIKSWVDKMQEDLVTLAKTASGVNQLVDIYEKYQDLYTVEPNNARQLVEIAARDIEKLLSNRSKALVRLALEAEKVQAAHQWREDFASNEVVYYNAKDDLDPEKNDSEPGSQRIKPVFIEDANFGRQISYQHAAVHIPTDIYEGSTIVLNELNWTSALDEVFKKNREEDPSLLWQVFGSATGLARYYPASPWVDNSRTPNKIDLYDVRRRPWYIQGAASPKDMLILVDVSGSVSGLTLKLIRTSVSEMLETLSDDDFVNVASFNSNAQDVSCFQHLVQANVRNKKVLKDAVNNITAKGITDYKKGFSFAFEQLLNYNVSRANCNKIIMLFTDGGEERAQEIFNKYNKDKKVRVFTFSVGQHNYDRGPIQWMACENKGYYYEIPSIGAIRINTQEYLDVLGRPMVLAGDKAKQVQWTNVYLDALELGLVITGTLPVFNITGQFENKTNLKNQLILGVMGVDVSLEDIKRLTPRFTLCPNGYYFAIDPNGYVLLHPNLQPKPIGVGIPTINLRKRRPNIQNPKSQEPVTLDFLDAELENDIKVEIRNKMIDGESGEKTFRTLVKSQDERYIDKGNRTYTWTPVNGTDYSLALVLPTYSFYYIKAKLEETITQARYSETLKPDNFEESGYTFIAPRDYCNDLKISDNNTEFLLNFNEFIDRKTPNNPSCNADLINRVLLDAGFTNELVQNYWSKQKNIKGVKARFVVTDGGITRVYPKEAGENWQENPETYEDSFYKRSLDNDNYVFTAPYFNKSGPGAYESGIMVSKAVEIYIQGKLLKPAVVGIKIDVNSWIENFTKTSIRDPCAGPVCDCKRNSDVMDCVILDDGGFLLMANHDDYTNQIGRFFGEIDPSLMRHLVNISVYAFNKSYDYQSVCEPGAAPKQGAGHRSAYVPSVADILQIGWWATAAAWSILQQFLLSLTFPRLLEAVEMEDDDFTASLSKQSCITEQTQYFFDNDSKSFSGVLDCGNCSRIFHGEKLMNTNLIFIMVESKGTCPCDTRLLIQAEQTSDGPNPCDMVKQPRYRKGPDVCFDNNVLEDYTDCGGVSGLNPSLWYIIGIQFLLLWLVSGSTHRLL
Chain of N-type calcium channel subunits (α1B, α2δ, and β3a) (P54284 whole entry partner): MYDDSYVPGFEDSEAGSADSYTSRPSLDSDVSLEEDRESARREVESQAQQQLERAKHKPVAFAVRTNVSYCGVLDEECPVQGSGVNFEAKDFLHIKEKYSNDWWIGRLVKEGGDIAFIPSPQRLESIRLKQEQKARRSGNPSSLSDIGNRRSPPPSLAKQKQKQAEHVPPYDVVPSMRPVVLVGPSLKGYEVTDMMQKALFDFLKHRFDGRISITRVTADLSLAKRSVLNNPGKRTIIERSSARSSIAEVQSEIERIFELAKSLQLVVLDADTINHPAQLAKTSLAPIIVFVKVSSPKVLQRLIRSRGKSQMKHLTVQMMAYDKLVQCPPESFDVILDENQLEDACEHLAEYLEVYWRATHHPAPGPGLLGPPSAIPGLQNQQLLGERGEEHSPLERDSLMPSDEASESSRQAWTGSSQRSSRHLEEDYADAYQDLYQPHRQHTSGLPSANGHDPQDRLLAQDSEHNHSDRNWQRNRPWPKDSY

What is called IC50 is the concentration needed to halve the response being measured. For `CC(C)(C)NC(=O)CNC1CCC(S(=O)(=O)c2cccc(C(F)(F)F)c2)CC1` (stereo not drawn) [Compound 16, N-tert-butyl-2-(4-(3-(trifluoromethyl)phenylsulfonyl)cyclohexylamino)acetamide], the IC50 was more than 10000 nM in assay [1], 9180 nM in assay [2] and 140 nM in assay [3].
The matching figures for `O=C(NC[C@H]1C[C@H](S(=O)(=O)c2cccc(C(F)(F)F)c2)C1)c1ccc(F)c(Cl)c1` [Compound 357, 3-chloro-4-fluoro-N-(((1R,3R)-3-(3-(trifluorornethyl)phenylsulfonyl)cyclobutyl)methyl)benzamide]: more than 10000 nM, more than 10000 nM and 200 nM.
As for `Cn1nc(C(F)(F)F)cc1C(=O)NC1CCC(C)(S(=O)(=O)c2cccc(C(F)(F)F)c2)CC1` (stereo not drawn) [Compound 6, 1-methyl-N-(4-methyl-4-(3-(trifluoromethyl)phenylsulfonyl)cyclohexyl)-3-(trifluoromethyl)-1H-pyrazole-5-carboxamide], the IC50 in assay [1] was more than 10000 nM; in assay [2], more than 10000 nM; in assay [3], 330 nM.
Consider `COc1cc(C(=O)NCC2(C)CCC(S(=O)(=O)c3cccc(C(F)(F)F)c3)CC2)cc(Cl)n1` (stereo not drawn) [Compound 210, 2-chloro-6-methoxy-N-((1-methyl-4-(3-(trifluoromethyl)phenylsulfonyl)cyclohexyl)methyl)isonicotinamide], for which the IC50 in assay [1] is 4950 nM; in assay [2], 4140 nM; in assay [3] it was 380 nM.
With `CC1(CNC(=O)c2ccc(F)c(C(F)(F)F)c2)CCC(S(=O)(=O)c2cccc(C(F)(F)F)c2)CC1` (stereo not drawn) [Compound 135, 4-fluoro-N-((1-methyl-4-(3-(trifluoromethyl)phenylsulfonyl)cyclohexyl)methyl)-3-(trifluoromethyl)benzamide], the IC50 came to 780 nM in assay [1], 760 nM in assay [2] and 100 nM in assay [3].
Turning to `O=C(N[C@H]1CC[C@@](F)(S(=O)(=O)c2cccc(C(F)(F)F)c2)CC1)c1cn2cc(C(F)(F)F)ccc2n1` [Compound 264, N-((1S,4S)-4-fluoro-4-(3-(trifluoromethyl)phenylsulfonyl)cyclohexyl)-6-(trifluoromethyl)imidazo[1,2-a]pyridine-2-carboxamide], the IC50 in assay [1] is 4480 nM; in assay [2], more than 10000 nM; in assay [3] it was 470 nM.
In the case of `COc1cc(F)cc(C(=O)NC[C@H]2CC[C@@H](S(=O)(=O)c3cccc(C(F)(F)F)c3)CC2)c1` [Compound 30, 3-fluoro-5-methoxy-N-(((1S,4S)-4-(3-(trifluoromethyl)phenylsulfonyl)cyclohexyl)methyl)benzamide], the IC50 in assay [1] stood at 1290 nM; in assay [2] it was 1410 nM; in assay [3], 720 nM.
The matching figures for `O=C(NC1CCC(S(=O)(=O)c2cccc(C(F)(F)F)c2)CC1)c1cc(F)cc(Cl)c1` (stereo not drawn) [Compound 26, 3-chloro-5-fluoro-N-(4-(3-(trifluoromethyl)phenylsulfonyl)cyclohexyl)benzamide]: 2790 nM, more than 10000 nM and 210 nM.
On to `COc1cc(F)cc(C(=O)N[C@H]2CC[C@@](F)(S(=O)(=O)c3cccc(C(F)(F)F)c3)CC2)c1` [Compound 87, 3-fluoro-N-((1S,4S)-4-fluoro-4-(3-(trifluoromethyl)phenylsulfonyl)cyclohexyl)-5-methoxybenzamide], for which the IC50 in assay [1] was determined as 6440 nM; in assay [2] it was 2100 nM; in assay [3] it was 240 nM.
The matching figures for `O=C(NC1CCC(S(=O)(=O)c2cccc(C(F)(F)F)c2)CC1)c1ccc(F)c(C(F)(F)F)c1` (stereo not drawn) [Compound 11, 4-fluoro-3-(trifluoromethyl)-N-(4-(3-(trifluoromethyl)phenylsulfonyl)cyclohexyl)benzamide]: more than 10000 nM, more than 10000 nM and 150 nM.
For the molecule `O=C(CNC1CCC(F)(F)CC1)N[C@H]1CC[C@H](CS(=O)(=O)c2cccc(C(F)(F)F)c2)CC1` [Compound 165, 2-(4,4-difluorocyclohexylamino)-N-((1R,4R)-4-((3-(trifluoromethyl)phenylsulfonyl)methyl)cyclohexyl)acetamide], the IC50 is 4370 nM in assay [1], 1390 nM in assay [2] and 540 nM in assay [3].
In the case of `CS(=O)(=O)c1cc(C(F)(F)F)cnc1C(=O)N[C@H]1CC[C@@](F)(S(=O)(=O)c2cccc(C(F)(F)F)c2)CC1` [Compound 259, N-((1S,4S)-4-fluoro-4-(3-(trifluoromethyl)phenylsulfonyl)cyclohexyl)-3-(methylsulfonyl)-5-(trifluoromethyl)picolinamide], the IC50 in assay [1] was 6110 nM; in assay [2], 9620 nM; in assay [3], 500 nM.
Regarding `O=C(N[C@H]1CC[C@@](F)(S(=O)(=O)c2cccc(C(F)(F)F)c2)CC1)C1CCCC1` [Compound 277, N-((1S,4S)-4-fluoro-4-(3-(trifluoromethyl)phenylsulfonyl)cyclohexyl) cyclopentanecarboxamide], the IC50 in assay [1] amounted to 2460 nM; in assay [2], 540 nM; in assay [3], 470 nM.
For “3-chloro-5-fluoro-N-(1- methyl-4-(3-(trifluoromethyl) phenylsulfonyl)cyclohexyl) benzamide [Compound 318]”, the IC50 was determined as 2430 nM in assay [1], 1330 nM in assay [2] and 620 nM in assay [3].
As to `Cn1nc(C(F)(F)F)cc1C(=O)NCC1(C)CCC(S(=O)(=O)c2cccc(C(F)(F)F)c2)CC1` (stereo not drawn) [Compound 206, 1-methyl-N-((1-methyl-4-(3-(trifluoromethyl)phenylsulfonyl)cyclohexyl)methyl)-3-(trifluoromethyl)-1H-pyrazole-5-carboxamide], the figures for the IC50 in assay [1], in assay [2] and in assay [3] were 3520 nM, 2550 nM and 420 nM, respectively.
Regarding `O=C(N[C@H]1CC[C@@](F)(S(=O)(=O)c2cccc(C(F)(F)F)c2)CC1)c1cnc(C(F)(F)F)nc1` [Compound 261, N-((1S,4S)-4-fluoro-4-(3-(trifluoromethyl)phenylsulfonyl)cyclohexyl)-2-(trifluoromethyl)pyrimidine-5-carboxamide], the 50% inhibitory concentration (IC50) in assay [1] was more than 10000 nM; in assay [2], 7180 nM; in assay [3], 1720 nM.
In the case of `CC1(NC(=O)c2ncc(C(F)(F)F)cc2S(C)(=O)=O)CCC(S(=O)(=O)c2cccc(C(F)(F)F)c2)CC1` (stereo not drawn) [Compound 317, N-(1-methyl-4-(3-(trifluoromethyl)phenylsulfonyl)cyclohexyl)-3-(methylsulfonyl)-5-(trifluoromethyl)picolinamide], the IC50 in assay [1] is 1140 nM; in assay [2] it was 860 nM; in assay [3] it was 2690 nM.
Regarding `O=C(N[C@H]1CC[C@@](F)(S(=O)(=O)c2cccc(C(F)(F)F)c2)CC1)[C@H]1CC[C@@H](c2ccccc2)N1` [Compound 288, (2R,5S)-N-((1S,4S)-4-fluoro-4-(3-(trifluoromethyl)phenylsulfonyl)cyclohexyl)-5-phenylpyrrolidine-2-carboxamide], the IC50 is more than 10000 nM in assay [1], 3260 nM in assay [2] and 640 nM in assay [3].
Turning to `O=C(N[C@H]1CC[C@@H](S(=O)(=O)c2cccc(C(F)(F)F)c2)CC1)c1ccc(Cl)c(F)c1` [Compound 130, 4-chloro-3-fluoro-N-((1S,4S)-4-(3-(trifluoromethyl)phenylsulfonyl)cyclohexyl)benzamide], the IC50 in assay [1] was found to be 430 nM; in assay [2], 940 nM; in assay [3], 290 nM.
As to `COc1cc(C(=O)NCC2(C)CCC(F)(S(=O)(=O)c3cccc(C(F)(F)F)c3)CC2)cc(Cl)n1` (stereo not drawn) [Compound 158, 2-chloro-N-((4-fluoro-1-methyl-4-(3-(trifluoromethyl)phenylsulfonyl)cyclohexyl)methyl)-6-methoxyisonicotinamide], the IC50 in assay [1] was more than 10000 nM; in assay [2] it was 7200 nM; in assay [3], 480 nM.
Take `CC(C)(C)OC(=O)N[C@H]1CC[C@@H](S(=O)(=O)c2cccc(C(F)(F)F)c2)CC1` [Compound 96, tert-butyl(1S,4S)-4-(3-(trifluoromethyl)phenylsulfonyl) cyclohexylcarbamate]: the IC50 in assay [1] was more than 10000 nM; in assay [2], 3820 nM; in assay [3], 430 nM.
`CC1(NC(=O)c2cc(C(F)(F)F)ccn2)CCC(S(=O)(=O)c2cccc(C(F)(F)F)c2)CC1` (stereo not drawn) [Compound 308, N-(1-methyl-4-(3-(trifluoromethyl)phenylsulfonyl)cyclohexyl)-4-(trifluoromethyl)picolinamide]: the IC50 in assay [1] was found to be 4200 nM; in assay [2], 2270 nM; in assay [3], 1450 nM.
With `Cc1nc(C(F)(F)F)ccc1NC(=O)[C@H]1C[C@H](S(=O)(=O)c2cccc(C(F)(F)F)c2)C1` [Compound 417, (1R,3R)-N-(2-methyl-6-(trifluoromethyl)pyridin-3-yl)-3-(3-(trifluoromethyl)phenylsulfonyl)cyclobutane carboxamide], the IC50 in assay [1] is more than 10000 nM; in assay [2], 4690 nM; in assay [3], 5440 nM.
For `Cc1noc(C)c1S(=O)(=O)N[C@H]1CC[C@@](F)(S(=O)(=O)c2cccc(C(F)(F)F)c2)CC1` [Compound 298, N-((1S,4S)-4-fluoro-4-(3-(trifluoromethyl)phenylsulfonyl)cyclohexyl)-3,5-dimethylisoxazole-4-sulfonamide], the values for the IC50 in assay [1], in assay [2] and in assay [3] were 880 nM, 240 nM and 850 nM, respectively.
